Assay results reported in patent publication US20100152200A1, “[…] USES THEREOF” (priority 2008, published 2010).
pIC50: −log10 of the molar value. Read-outs that look alike come from different tables or passages of the source.

Legend:
FMV [1] = system: FMV
WEEV replicon pWR-LUC = test: organism not typed; assay type: cell-based
WEEV = assay type: cell-based, WEEV strain Cba87
EEEV replicon = assay type: cell-based
FMV [2] = assay type: cell-based, Fort Morgan virus (FMV) strain CM4-146
BSR-T7/5 cells = test: Toxicity studies (MTT or Alamar Blue cell viability) in the pWR-LUC:BSR-T7/5 system; settings: for toxicity:activity (T:A) ratio (CC50/IC1050): pWR-LUC:BSR-T7/5 system
FMV [3] = assay type: cell-based, Fort Morgan virus (FMV) strain CM4-146; remark: listed apart in the source
VEEV replicon = assay type: cell-based
SINV = settings: 12.5 µM

| SMILES | concentration effectively suppressing FMV-induced CPE (lowest concentration tested) (FMV [1]) [µM] | cell viability of FMV-infected cells (FMV [1]; 12.5 µM) [%] | pIC50 (WEEV replicon pWR-LUC; read-out: IC50) | reduction of accumulation of viral RNAs encoding nsP2 or E1 (WEEV) | activity against EEEV replicon (in words) (EEEV replicon) | reduction of accumulation of viral RNAs encoding nsP2 or E1 (FMV [2]) | cytotoxicity (in words) (BSR-T7/5 cells; FIG. 2 dose-response, BSR-T7/5 cells transfected with pWR-LUC) | toxicity:activity (T:A) ratio (CC50/IC1050) (BSR-T7/5 cells) | suppression of infectious FMV production (FMV [3]) [%] | activity against VEEV replicon (in words) (VEEV replicon) | cell viability of SINV-infected cells (SINV) [%] | suppression of fLUC expression (WEEV replicon pWR-LUC) | pIC50 (WEEV replicon pWR-LUC; BSR-T7/5) |
| --- | --- | --- | --- | --- | --- | --- | --- | --- | --- | --- | --- | --- | --- |
| O=C(NCc1ccco1)C1CCN(C(=O)c2cc3sccc3n2Cc2ccc(F)cc2)CC1 [Compound 32091] | ≤ 3 | 70 | 5.03 | 80-90% | broad activity | 80-90% | minimal cytotoxicity | greater than 20 | > 90 | broad activity | 50 | – | – |
| COc1c(C)c2c(c(O)c1C/C=C(\C)CCC(=O)O)C(=O)OC2 [mycophenolic acid] | – | – | – | – | – | – | – | – | – | – | – | approximately 80% | – |
| NC(=O)c1ncn([C@@H]2O[C@H](CO)[C@@H](O)[C@H]2O)n1 [ribavirin] | – | – | – | – | – | – | – | 19 | – | – | – | approximately 80% | 4.80 |
